Columns and labels:
Experiment in all cases: relative viability (nuclei count vs DMSO), 5 days (fraction); higher = more cells survive
NCI-H2085 = system: NCI-H2085
How it was run: (§1)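 Dosing by pin tool came one day after lung cancer cell lines were seeded in 1536-well plates, using either one drug or a fixed anchor-drug dose plus five library-drug doses (not always all listed) in √10 steps. After 5 days, nuclei were counted on 4× images. Relative viability is treated-well nuclei count divided by vehicle-well nuclei count, and values are medians of duplicate plates.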

LXF-289 = system: LXF-289
How it was run: as §1

NCI-H1993 = system: NCI-H1993
How it was run: as §1

ABC-1 = system: ABC-1
How it was run: as §1

CAL-12T = system: CAL-12T
How it was run: as §1

HCC-15 = system: HCC-15
How it was run: as §1

EPLC-272H = system: EPLC-272H
How it was run: as §1

HCC-78 = system: HCC-78
How it was run: as §1

NCI-H2126 = system: NCI-H2126
How it was run: as §1

NCI-H1755 = system: NCI-H1755
How it was run: as §1

NCI-H358 = system: NCI-H358
How it was run: as §1

NCI-H322M = system: NCI-H322M
How it was run: as §1

NCI-H441 = system: NCI-H441
How it was run: as §1

ChaGo-K-1 = system: ChaGo-K-1
How it was run: as §1

NCI-H1915 = system: NCI-H1915
How it was run: as §1

NCI-H1666 = system: NCI-H1666
How it was run: as §1

NCI-H3122 = system: NCI-H3122
How it was run: as §1

NCI-H1975 = system: NCI-H1975
How it was run: as §1

EMC-BAC-2 = system: EMC-BAC-2
How it was run: as §1

COR-L 105 = system: COR-L 105
How it was run: as §1

NCI-H2023 = system: NCI-H2023
How it was run: as §1

HOP-62 = system: HOP-62
How it was run: as §1

UMC-11 = system: UMC-11
How it was run: as §1

CC1(C)CCC(c2ccc(Cl)cc2)=C(CN2CCN(c3ccc(C(=O)NS(=O)(=O)c4ccc(N[C@H](CCN5CCOCC5)CSc5ccccc5)c(S(=O)(=O)C(F)(F)F)c4)cc3)CC2)C1 [Navitoclax] + COc1cc2c(Oc3ccc(NC(=O)C4(C(=O)Nc5ccc(F)cc5)CC4)cc3F)ccnc2cc1OCCCN1CCOCC1 [Foretinib] (partner 0.25 µM)
relative viability (NCI-H2085; first compound 0.005 µM): 0.92
relative viability (NCI-H2085; first compound 0.01581 µM): 0.98
relative viability (NCI-H2085; first compound 0.05 µM): 0.989
relative viability (NCI-H2085; first compound 0.1581 µM): 0.863
relative viability (NCI-H2085; first compound 0.5 µM): 0.836
relative viability (LXF-289; first compound 0.005 µM): 1.05
relative viability (LXF-289; first compound 0.01581 µM): 0.981
relative viability (LXF-289; first compound 0.05 µM): 0.924
relative viability (LXF-289; first compound 0.1581 µM): 0.93
relative viability (LXF-289; first compound 0.5 µM): 0.966
relative viability (NCI-H1993; first compound 0.005 µM): 0.854
relative viability (NCI-H1993; first compound 0.01581 µM): 0.938
relative viability (NCI-H1993; first compound 0.05 µM): 0.687
relative viability (NCI-H1993; first compound 0.1581 µM): 0.839
relative viability (NCI-H1993; first compound 0.5 µM): 0.862
relative viability (ABC-1; first compound 0.005 µM): 1.32
relative viability (ABC-1; first compound 0.01581 µM): 1.17
relative viability (ABC-1; first compound 0.05 µM): 1.12
relative viability (ABC-1; first compound 0.1581 µM): 1.07
relative viability (ABC-1; first compound 0.5 µM): 1.05
relative viability (CAL-12T; first compound 0.005 µM): 1.08
relative viability (CAL-12T; first compound 0.01581 µM): 1.17
relative viability (CAL-12T; first compound 0.05 µM): 1.16
relative viability (CAL-12T; first compound 0.1581 µM): 1.11
relative viability (CAL-12T; first compound 0.5 µM): 1.11
relative viability (HCC-15; first compound 0.005 µM): 1.01
relative viability (HCC-15; first compound 0.01581 µM): 1.05
relative viability (HCC-15; first compound 0.05 µM): 0.977
relative viability (HCC-15; first compound 0.1581 µM): 0.982
relative viability (HCC-15; first compound 0.5 µM): 0.918
relative viability (EPLC-272H; first compound 0.005 µM): 0.707
relative viability (EPLC-272H; first compound 0.05 µM): 0.766
relative viability (EPLC-272H; first compound 0.1581 µM): 0.712
relative viability (EPLC-272H; first compound 0.5 µM): 0.764
relative viability (HCC-78; first compound 0.005 µM): 0.596
relative viability (HCC-78; first compound 0.01581 µM): 0.663
relative viability (HCC-78; first compound 0.1581 µM): 0.591
relative viability (HCC-78; first compound 0.5 µM): 0.595
relative viability (NCI-H2126; first compound 0.005 µM): 1.25
relative viability (NCI-H2126; first compound 0.01581 µM): 1.17
relative viability (NCI-H2126; first compound 0.1581 µM): 1.14
relative viability (NCI-H2126; first compound 0.5 µM): 1.19
relative viability (NCI-H1755; first compound 0.005 µM): 0.873
relative viability (NCI-H1755; first compound 0.01581 µM): 1.01
relative viability (NCI-H1755; first compound 0.05 µM): 0.735
relative viability (NCI-H1755; first compound 0.1581 µM): 0.901
relative viability (NCI-H1755; first compound 0.5 µM): 0.855
relative viability (NCI-H358; first compound 0.005 µM): 0.743
relative viability (NCI-H358; first compound 0.01581 µM): 0.946
relative viability (NCI-H358; first compound 0.05 µM): 0.613
relative viability (NCI-H358; first compound 0.1581 µM): 0.645
relative viability (NCI-H358; first compound 0.5 µM): 0.728
relative viability (NCI-H322M; first compound 0.005 µM): 1.03
relative viability (NCI-H322M; first compound 0.01581 µM): 1.19
relative viability (NCI-H322M; first compound 0.05 µM): 0.795
relative viability (NCI-H322M; first compound 0.1581 µM): 0.992
relative viability (NCI-H322M; first compound 0.5 µM): 1.1
relative viability (NCI-H441; first compound 0.005 µM): 0.958
relative viability (NCI-H441; first compound 0.01581 µM): 1.05
relative viability (NCI-H441; first compound 0.05 µM): 1.05
relative viability (NCI-H441; first compound 0.1581 µM): 0.945
relative viability (NCI-H441; first compound 0.5 µM): 0.948
relative viability (ChaGo-K-1; first compound 0.005 µM): 1.04
relative viability (ChaGo-K-1; first compound 0.01581 µM): 0.94
relative viability (ChaGo-K-1; first compound 0.05 µM): 0.537
relative viability (ChaGo-K-1; first compound 0.1581 µM): 0.9
relative viability (ChaGo-K-1; first compound 0.5 µM): 0.932
relative viability (NCI-H1915; first compound 0.005 µM): 1.08
relative viability (NCI-H1915; first compound 0.01581 µM): 1.12
relative viability (NCI-H1915; first compound 0.05 µM): 1.11
relative viability (NCI-H1915; first compound 0.1581 µM): 1.02
relative viability (NCI-H1915; first compound 0.5 µM): 1.07
relative viability (NCI-H1666; first compound 0.005 µM): 0.941
relative viability (NCI-H1666; first compound 0.01581 µM): 1.04
relative viability (NCI-H1666; first compound 0.05 µM): 0.965
relative viability (NCI-H1666; first compound 0.1581 µM): 0.998
relative viability (NCI-H1666; first compound 0.5 µM): 0.964
relative viability (NCI-H3122; first compound 0.005 µM): 0.936
relative viability (NCI-H3122; first compound 0.01581 µM): 1.04
relative viability (NCI-H3122; first compound 0.05 µM): 0.964
relative viability (NCI-H3122; first compound 0.1581 µM): 0.934
relative viability (NCI-H3122; first compound 0.5 µM): 0.966
relative viability (NCI-H1975; first compound 0.005 µM): 0.887
relative viability (NCI-H1975; first compound 0.01581 µM): 1.03
relative viability (NCI-H1975; first compound 0.05 µM): 1.03
relative viability (NCI-H1975; first compound 0.1581 µM): 0.914
relative viability (NCI-H1975; first compound 0.5 µM): 1.04
relative viability (EMC-BAC-2; first compound 0.005 µM): 1.07
relative viability (EMC-BAC-2; first compound 0.01581 µM): 1.14
relative viability (EMC-BAC-2; first compound 0.05 µM): 0.96
relative viability (EMC-BAC-2; first compound 0.1581 µM): 1.01
relative viability (EMC-BAC-2; first compound 0.5 µM): 1.05
relative viability (COR-L 105; first compound 0.005 µM): 1.17
relative viability (COR-L 105; first compound 0.01581 µM): 1.46
relative viability (COR-L 105; first compound 0.05 µM): 1.31
relative viability (COR-L 105; first compound 0.1581 µM): 0.865
relative viability (COR-L 105; first compound 0.5 µM): 0.979
relative viability (NCI-H2023; first compound 0.005 µM): 0.912
relative viability (NCI-H2023; first compound 0.01581 µM): 1.12
relative viability (NCI-H2023; first compound 0.05 µM): 0.819
relative viability (NCI-H2023; first compound 0.1581 µM): 0.848
relative viability (NCI-H2023; first compound 0.5 µM): 0.995
relative viability (HOP-62; first compound 0.005 µM): 1.07
relative viability (HOP-62; first compound 0.01581 µM): 1.15
relative viability (HOP-62; first compound 0.05 µM): 1.19
relative viability (HOP-62; first compound 0.1581 µM): 1.02
relative viability (HOP-62; first compound 0.5 µM): 1.02
relative viability (UMC-11; first compound 0.005 µM): 0.976
relative viability (UMC-11; first compound 0.01581 µM): 1.14
relative viability (UMC-11; first compound 0.05 µM): 1.18
relative viability (UMC-11; first compound 0.1581 µM): 0.937
relative viability (UMC-11; first compound 0.5 µM): 0.66

Reference: the supplement of paper PMC10307832
